Measurements as given in paper PMC7887336, “Altered functional properties of the codling moth Orco mutagenized in the intracellular loop-3” (Scientific Reports, 2021).
pEC50: −log10 of the molar value. Several values for one entry are separate records, joined by “and”; a condition that tells them apart may be missing. Identical values can stand only once.

Legend:
CpomOrco^Q417H = CpomOrco^Q417H (Cydia pomonella, UniProt H9A5M2, Q417H); assay: Whole-cell voltage-clamp recordings of HEK293A cells transfected with CpomOrco^Q417H, VUAA1; type: cell-based; settings: for pEC50: EC50 (K1/2)
Method: HEK293 cells lines (HEK293A/HEK293T) were grown in HEK cell media [Dulbecco's modified Eagle's medium containing 10% fetal bovine serum (MP Biomedicals, Solon, OH, USA), 2.0 mM L-glutamine, and 100 µg/mL penicillin/streptomycin (Invitrogen)] at 37 °C and 5% CO2. To test transient expression of wild type CpomOrco and CpomOrco^Q417H variant for calcium imaging and patch-clamp recording, 35-mm petri dishes containing semi-confluent HEK293A cells were transiently transfected. Cells were transfected with 0.6 µg of pcDNA40-DEST carrying the coding sequence of the CpomOrco variant (depending on the experiments). To report expression for calcium imaging experiments, 0.6 µg of a separate plasmid DNA [pEBFP2-Nuc, a gift from Robert Campbell (Addgene plasmid # 1489352)] carrying the coding sequence for a blue fluorescent protein (EBFP) was co-transfected. To report expression in patch-clamp recordings, 1.0 µg of a separate plasmid DNA (pXOOM, Clontech, Mountain View, CA, USA) carrying the coding sequence for a green fluorescent protein (GFP) was co-transfected. Expressions of fluorescent reporter genes were under the regulation of the same promoter for Cpom-genes (CMV). For specific experiments, co-transfections were conducted combining an additional 1.2 µg of pcDNA40-DEST/CpomOR3 or pcDNA40-DEST/CpomOR6a, as we previously described. Co-transfections with CpomOR3 were performed for dose–response experiments to pear ester: CpomOR3 was co-expressed with CpomOrco variants by the use of HEK293T (Fig. 3b); given the reported functional co-expression data of the CpomOrco + OR3 heteromers by the use of these specific cells. In brief, transfection DNAs were dissolved in 100 µL sterile DMEM, mixed with 3.0 µL Calfectin (SignaGen, Rockville, MD, USA) following the recommended protocol. Transfections were conducted overnight for up to 18 h, HEK cell media was replaced with 2.0 mL fresh media to incubate cells at 37 °C for up to 6–8 h, at which point part of the cell culture was spread in the middle of a 35-mm plate as individual cells or small clusters and rinsed at the sides with 2.0 mL fresh HEK media. After splitting, cells were allowed to recover for at least 1 day prior to calcium imaging.
Electrophysiological experiments were performed according with the same procedures we previously described. Patch pipettes were fabricated from borosilicate capillary glass (BF150-86–10, Sutter Instrument, CA, USA) using a Flaming-Brown micropipette puller (P-87, Sutter Instrument). Only patches with initial cell-attached seal resistance estimated higher than 1.0 GOhms were used in the experiments. Intracellular (pipette) solution for whole-cell experiments was KCl 140 mM, EGTA 1 mM, Hepes 5 mM, MES 5 mM, pH 8.0 or pH 5.5 (depending on the experiment) adjusted with either NaOH or HCl, standard Na^+ 140 mM. bath solution was usually NaCl 140 mM, EGTA 0.1 mM, Hepes 10 mM, pH 7.4 (adjusted with Tris-base or NaOH). VUAA1 doses (0–1000 µM) were added to the extracellular test solutions.
As described in methods of Cattaneo et al.[14], GFP positive HEK293A cells were visualized using either an Axiovert 100 inverted microscope (Carl Zeiss, Inc., München, Germany) equipped with a mercury vapour compressed-arc lamp (HBO100) coupled to widefield fluorescence filter set (1114–459, Carl Zeiss, Inc.) or Olympus IX-71 inverted microscope described above (Olympus Corp.). The Orco channel-mediated currents were investigated using whole-cell patch-clamp recordings. The currents were measured with a 200B patch-clamp amplifier (Molecular Devices) and a digital interface (Digidata 1320A, Molecular Devices), low pass filtered at 5.0 kHz, sampled at 1–2 kHz. Analysis of the data was carried out using pCLAMP 9.2/10.5 software (Molecular Devices) and SigmaPlot 11 (Systat Software Inc). […]

CpomOrco^Q417H+OR6a = assay: VUAA1 responsiveness (Fluo4 +) of HEK293A cells co-transfected with CpomOrco^Q417H and CpomOR6a; type: cell-based, Cydia pomonella; settings: for Fluo4 + cells, %: of bright field cells
Method: HEK293 cells lines (HEK293A/HEK293T) were grown in HEK cell media [Dulbecco's modified Eagle's medium containing 10% fetal bovine serum (MP Biomedicals, Solon, OH, USA), 2.0 mM L-glutamine, and 100 µg/mL penicillin/streptomycin (Invitrogen)] at 37 °C and 5% CO2. To test transient expression of wild type CpomOrco and CpomOrco^Q417H variant for calcium imaging and patch-clamp recording, 35-mm petri dishes containing semi-confluent HEK293A cells were transiently transfected. Cells were transfected with 0.6 µg of pcDNA40-DEST carrying the coding sequence of the CpomOrco variant (depending on the experiments). To report expression for calcium imaging experiments, 0.6 µg of a separate plasmid DNA [pEBFP2-Nuc, a gift from Robert Campbell (Addgene plasmid # 1489352)] carrying the coding sequence for a blue fluorescent protein (EBFP) was co-transfected. To report expression in patch-clamp recordings, 1.0 µg of a separate plasmid DNA (pXOOM, Clontech, Mountain View, CA, USA) carrying the coding sequence for a green fluorescent protein (GFP) was co-transfected. Expressions of fluorescent reporter genes were under the regulation of the same promoter for Cpom-genes (CMV). For specific experiments, co-transfections were conducted combining an additional 1.2 µg of pcDNA40-DEST/CpomOR3 or pcDNA40-DEST/CpomOR6a, as we previously described. […]
Fluorescence imaging was performed using settings optimized for Imaging Workbench 6 software (INDEC BioSystems, Santa Clara, CA, USA)[14]. […] Each cell was assigned a region of interest (ROI) and changes in fluorescence intensity within each ROI were measured and expressed as the fractional change in fluorescence intensity (dF). Stored time series image stacks were analysed off-line using Imaging Workbench 6, Clampfit 10.5 (Molecular Devices) and SigmaPlot 11 (Systat Software Inc., San Jose, CA, USA). […]

[1] = intracellular pH = 5.5, extracellular pH 7.4, -50 mV
[2] = intracellular pH = 8.0, extracellular pH 7.4, -50 mV

Sequence of CpomOrco^Q417H (H9A5M2 entry or part of it Q417H): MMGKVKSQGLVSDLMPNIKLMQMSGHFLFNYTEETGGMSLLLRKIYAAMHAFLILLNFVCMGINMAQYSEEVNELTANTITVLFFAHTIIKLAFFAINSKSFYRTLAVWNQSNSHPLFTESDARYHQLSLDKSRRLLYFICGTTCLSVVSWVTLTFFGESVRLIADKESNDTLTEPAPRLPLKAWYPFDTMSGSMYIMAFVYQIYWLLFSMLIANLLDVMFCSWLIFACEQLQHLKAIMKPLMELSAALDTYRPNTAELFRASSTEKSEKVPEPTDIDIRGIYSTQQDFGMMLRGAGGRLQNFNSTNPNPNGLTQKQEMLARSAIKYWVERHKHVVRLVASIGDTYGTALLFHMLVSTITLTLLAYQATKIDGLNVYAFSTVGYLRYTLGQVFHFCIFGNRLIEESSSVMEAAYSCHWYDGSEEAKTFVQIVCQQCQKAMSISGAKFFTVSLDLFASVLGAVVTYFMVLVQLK

For CCc1ccc(NC(=O)CSc2nnc(-c3cccnc3)n2CC)cc1 [VUAA1, acetamide,N-(4-ethylphenyl)-2-[[4-ethyl-5-(3-pyridinyl)-4H-1,2,4-triazol-3-yl]thio]-], the pEC50 (CpomOrco^Q417H; [1]) was ~3.26, the pEC50 (CpomOrco^Q417H; [2]) was ~3.21 and the “h (Hill equation)” value (CpomOrco^Q417H; intracellular pH = 5.5) was ~ 4 ± 1.4. The “number of cells sensitive to VUAA1” value (CpomOrco^Q417H; intracellular pH = 5.5, GFP positive cells tested) was 6 out of 9, the “Imax (whole-cell current amplitude, Hill fit)” value (CpomOrco^Q417H; [1]) was ~216 pA and ~ 216 ± 23 pA and the “h (Hill equation)” value (CpomOrco^Q417H; intracellular pH = 8.0) was ~ 5 ± 1.9. The “number of cells sensitive to VUAA1” value (CpomOrco^Q417H; intracellular pH = 8.0, GFP positive cells tested) was 11 out of 17, the “Imax (whole-cell current amplitude, Hill fit)” value (CpomOrco^Q417H; [2]) was ~ 332 pA and ~ 332 ± 44 pA and the “Fluo4 + cells, %” value (CpomOrco^Q417H+OR6a; 800 µM VUAA1, Experiment 3, CpomOrcoQ417H+OR6a) was 8,41%. The “Fluo4 + cells, %” value (CpomOrco^Q417H+OR6a; 800 µM VUAA1, Experiment 4, CpomOrcoQ417H+OR6a) was 10,33% and the “percentage of VUAA1 sensitive cells” value (CpomOrco^Q417H+OR6a; 800 µM VUAA1, HEK293A co-transfected with CpomOrco^Q417H, CpomOR6a and EBFP, range of two experiments) was 8.41–10.33%.
